Laboratory results from patent publication US4377587A, “Arylamine derivatives and use thereof as microbicides” (Ciba-Geigy Corporation, priority 1980, dated 1983).
≈ marks a conversion by molar mass, not a printed value.

What was measured:
Phytophthora infestans [1] = assay type: in vivo, Phytophthora infestans (on tomato plants); settings: tomato, sprayed 0.06% active ingredient 22 hours after infestation, evaluated 5 days after infestation
Podosphaera leucotricha = assay: Residual-protective action against Podosphaera leucotricha on apples; assay type: in vivo; settings: apple seedlings, spray 0.06% of active ingredient, evaluated 12 days after infection
Protocol: Residual-protective action against Podosphaera leucotricha on apples
Apple seedlings in the 5-leaf stage are sprayed with a spray mixture (0.06% of active ingredient) prepared from a wettable powder formulation of the active ingredient. After 24 hours the treated plants are infected with a conidia suspension of the fungus and placed in a climatic chamber at 70% relative humidity and 20° C. Evaluation of fungus infestation is made 12 days after infection.

Phytophthora infestans [2] = assay type: in vivo, Phytophthora infestans (on tomato plants); settings: tomato, spray 0.06% active ingredient, infested after 24 hours, evaluated after 5 days at 20° C.
Pythium debaryanum [3] = assay: Action on Pythium debaryanum on sugar beets, (a) after soil application; assay type: in vivo; settings: sugar beet, 20 ppm of active ingredient based on volume of soil, 2-3 weeks at 20°-24° C.
Text: (§1) Action on Pythium debaryanum on sugar beets
(a) Action after soil application
The fungus is cultivated on carrot chips nutrient solution and added to a mixture of earth and sand. Flower pots are filled with the infected soil, in which sugar beet seeds are then sown. Immediately after sowing, the test preparations formulated as wettable powders are poured in the form of aqueous suspensions over the soil (20 ppm of active ingredient, based on the volume of the soil). The pots are then stood for 2-3 weeks in a greenhouse at 20°-24° C. The soil is kept uniformly moist by gently spraying it with water. The emergence of the sugar beet plants as well as the number of healthy and sick plants are ascertained in evaluating the test.

Pythium debaryanum [4] = assay: Action on Pythium debaryanum on sugar beets, (b) after seed dressing application; assay type: in vivo; settings: sugar beet, seed dressing 0.06%, 2-3 weeks at c. 20° C.
Protocol: as §1
(b) Action after seed dressing application
The fungus is cultivated on carrot chip nutrient solution and added to a mixture of earth and sand. Flower pots are filled with the infected soil and sugar beet seeds which have been treated with the test preparations formulated as seed dressing powders are sown therein (0.06% of one of the compounds of Tables 1 and 2). The pots are then stood in a greenhouse for 2-3 weeks at c. 20° C. The soil is kept uniformly moist by gently spraying it with water. The emergence of the sugar beet plants is ascertained in evaluating the test.

Erysiphe graminis = assay: Action against Erysiphe graminis on barley, residual protective action; assay type: in vivo, Erysiphe graminis (on barley plants); settings: 0.02% active ingredient sprayed, infected after 3-4 hours, evaluated after 10 days
Protocol: Action against Erysiphe graminis on barley
Residual protective action
Barley plants about 8 cm in height are sprayed with a spray mixture (0.02% of active ingredient) prepared from the active ingredient formulated as a wettable powder. The treated plants are dusted with conidia of the fungus after 3-4 hours. The infected barley plants are then stood in a greenhouse at about 22° C. The extent of the fungus infection is evaluated after 10 days.

Water solubility = assay type: physicochemical; settings: 25° C.
Text: Determination of physico-chemical data
(a) Reduced water solubility

Row | Structure (SMILES) | fungus attack compared with untreated and infected control plants (100% attack), residual curative (Phytophthora infestans [1]) | fungus attack compared with untreated control plants (100% attack), residual-protective (Phytophthora infestans [2]) | emergent plants (fully effective against Pythium pathogens), soil application (Pythium debaryanum [3]) | emergent plants (fully effective against Pythium pathogens), seed dressing application (Pythium debaryanum [4]) | further results
1 | COCC(=O)N(c1c(N)cccc1Cl)C(C)C(=O)OC (centres unmarked) [Compound 6] | less than 10% | less than 10% | over 90% | over 90% | fungus attack compared with untreated and infected control seedlings (100% attack) (Podosphaera leucotricha): less than 10%
2 | COC(=O)C(C)N(C(=O)CS(C)(=O)=O)c1c(C)ccc(N)c1C (centres unmarked) [Compound 14] |  | less than 10% |  |  | 
3 | COCC(=O)N(c1c(C)cc(C)c([N+](=O)[O-])c1C)C(C)C(=O)OC (centres unmarked) [Compound 29] | less than 10% | less than 10% | over 90% | over 90% | 
4 | COC(=O)C(C)N(C(=O)C1CCCO1)c1c(C)ccc([N+](=O)[O-])c1C (centres unmarked) [Compound 35] |  | less than 10% |  |  | 
5 | COC(=O)C(C)N(C(=O)CS(C)(=O)=O)c1c(C)ccc([N+](=O)[O-])c1C (centres unmarked) [Compound 38] |  | less than 10% |  |  | fungus attack compared with control plants (100% attack) (Erysiphe graminis): less than 10%
6 | COCC(=O)N(c1c(Cl)cccc1[N+](=O)[O-])C(C)C(=O)OC (centres unmarked) [Compound 57] |  | less than 10% |  |  | 
7 | COCC(=O)N(c1c([N+](=O)[O-])ccc(C)c1C)C(C)C(=O)OC (centres unmarked) [Compound 59, N-(1'methoxycarbonylethyl)-N-methoxyacetyl-2,3-dimethyl-6-nitroaniline] | less than 10% | less than 10% | over 90% | over 90% | 
8 | CCOCC(=O)N(c1c(C)ccc([N+](=O)[O-])c1C)C(C)C(=O)OC(C)C (centres unmarked) [Compound 73] |  | less than 10% | over 90% | over 90% | fungus attack compared with untreated and infected control seedlings (100% attack) (Podosphaera leucotricha): less than 10%
9 | CCOC(=O)C(C)N(C(=O)COC)c1c(C)ccc([N+](=O)[O-])c1C (centres unmarked) [Compound 74] | less than 10% | less than 10% |  |  | 
10 | COCC(=O)N(c1c(C)cc([N+](=O)[O-])c(C)c1C)C(C)C(=O)OC (centres unmarked) [Compound 78] |  | less than 10% |  |  | 
11 | CCOCC(=O)N(c1c(Cl)ccc(N)c1C)C(C)C(=O)OC (centres unmarked) [Compound 88] |  | less than 10% |  |  | 
12 | CCOCC(=O)N(c1cccc([N+](=O)[O-])c1C)C(C)C(=O)OC (centres unmarked) [Compound 104] |  |  |  |  | fungus attack compared with control plants (100% attack) (Erysiphe graminis): less than 10%
13 | CCOCC(=O)N(c1c(Cl)ccc([N+](=O)[O-])c1C)C(C)C(=O)OC (centres unmarked) [Compound 107] | less than 10% |  | over 90% | over 90% | fungus attack compared with control plants (100% attack) (Erysiphe graminis): less than 10%
14 | C=CCN(C(=O)COC)c1c(C)ccc([N+](=O)[O-])c1C [Compound 111] |  | less than 10% |  |  | 
15 | C#CCN(C(=O)COC)c1c(C)ccc([N+](=O)[O-])c1C [Compound 117] |  | less than 10% |  |  | 
16 | C#CCN(C(=O)COCC)c1c(C)ccc([N+](=O)[O-])c1C [Compound 122] |  | less than 10% |  |  | 
17 | COC(=O)C(C)N(C(=O)C1CC1)c1ccc([N+](=O)[O-])cc1Cl (centres unmarked) [Compound 138] |  | less than 10% |  |  | 
18 | COC(=O)C(C)N(C(=O)C1CC1)c1ccc(N)cc1Cl (centres unmarked) [Compound 139] |  | less than 10% |  |  | 
19 | COCC(=O)N(c1c(C)c(C)c([N+](=O)[O-])c(C)c1C)C(C)C(=O)OC (centres unmarked) [Compound 141] | less than 10% | less than 10% |  |  | 
20 | CCOCC(=O)N(c1c(C)c(C)c([N+](=O)[O-])c(C)c1C)C(C)C(=O)OC (centres unmarked) [Compound 142] | less than 10% | less than 10% |  |  | fungus attack compared with control plants (100% attack) (Erysiphe graminis): less than 10%
21 | COC(=O)C(C)N(C(=O)C1CCCO1)c1c(C)c(C)c([N+](=O)[O-])c(C)c1C (centres unmarked) [Compound 144] |  | less than 10% |  |  | 
22 | COCC(=O)N(c1c(C)c(C)c(N)c(C)c1C)C(C)C(=O)OC (centres unmarked) [Compound 158] |  | less than 10% | over 90% | over 90% | 
23 | CCOCC(=O)N(c1c(C)c(C)c(N)c(C)c1C)C(C)C(=O)OC (centres unmarked) [Compound 159] |  | less than 10% |  |  | 
24 | COC(=O)C(C)N(C(=O)COC(C)C)c1c(C)c(C)c(N)c(C)c1C (centres unmarked) [Compound 160] |  |  | over 90% | over 90% | 
25 | COC(=O)C(C)N(C(=O)C1CCCO1)c1c(C)c(C)c(N)c(C)c1C (centres unmarked) [Compound 161] | less than 10% | less than 10% |  |  | 
26 | COCC(=O)N(c1c([N+](=O)[O-])ccc2ccccc12)C(C)C(=O)OC (centres unmarked) [Compound 400, N-(1'methoxycarbonylethyl)-N-methoxyacetyl-2-nitronaphthylamine] | less than 10% | less than 10% | over 90% | over 90% | 
27 | COCC(=O)N(c1c(C)cc([N+](=O)[O-])c2ccccc12)C(C)C(=O)OC (centres unmarked) [Compound 606] | less than 10% | less than 10% | over 90% | over 90% | fungus attack compared with untreated and infected control seedlings (100% attack) (Podosphaera leucotricha): less than 10%
28 | COC(=O)C(C)N(C(=O)C1CCCO1)c1c(C)cc([N+](=O)[O-])c2ccccc12 (centres unmarked) [Compound 607] |  | less than 10% | over 90% | over 90% | 
29 | COCC(=O)N(c1ccc([N+](=O)[O-])c2ccccc12)C(C)C(=O)OC (centres unmarked) [Compound 611] | less than 10% | less than 10% |  |  | 
30 | COCC(=O)N(c1c(C)cccc1C)[C@@H](C)C(=O)OC [Metalaxyl, N-(2,6-dimethylphenyl)-N-(2'-methoxyacetyl)alanine methyl ester, reference compound] |  |  |  |  | solubility (Water solubility): 800 µg/mL (≈ 2860 µM)
